From ChEMBL document CHEMBL1124726, “Novel [(diazomethyl)carbonyl]-1,2,3,4-tetrahydronaphthalene derivatives as potential photoaffinity ligands for the 5-HT1A receptor” (J Med Chem, 1990)

How the values were obtained:
[1] = biological target: T1, 5-hydroxytryptamine receptor 1A (Rattus norvegicus, UniProt P19327); test: Binding affinity to 5-hydroxytryptamine 1A receptor in rat cortex using [3H]-8-OH- DPAT as radioligand
T1 sequence (P19327 whole entry): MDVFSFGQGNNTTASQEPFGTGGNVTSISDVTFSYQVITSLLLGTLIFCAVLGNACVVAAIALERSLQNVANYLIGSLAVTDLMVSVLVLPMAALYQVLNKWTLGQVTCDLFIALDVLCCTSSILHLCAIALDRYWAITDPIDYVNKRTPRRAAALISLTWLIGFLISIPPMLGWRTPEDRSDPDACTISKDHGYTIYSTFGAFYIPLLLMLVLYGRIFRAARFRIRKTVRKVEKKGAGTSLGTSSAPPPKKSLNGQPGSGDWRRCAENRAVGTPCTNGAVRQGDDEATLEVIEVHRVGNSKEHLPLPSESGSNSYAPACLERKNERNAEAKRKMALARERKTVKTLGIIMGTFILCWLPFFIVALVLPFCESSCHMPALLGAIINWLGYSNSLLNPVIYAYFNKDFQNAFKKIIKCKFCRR

[2] = biological target: T1, 5-hydroxytryptamine receptor 1A; test: Binding affinity to 5-hydroxytryptamine 1A receptor in rat hippocampus using [3H]-8-OH- DPAT as radioligand; type: tissue-based

## CCCN(CCC)C1CCc2cccc(OCC(=O)C=[N+]=[N-])c2C1 (configuration not stated)
[1]
  IC50: 0.072 µM
[2]
  IC50: 0.0781 µM

## CCCN(CCC)C1CCc2cccc(OC(=O)[CH-][N+]#N)c2C1 (configuration not stated)
[1]
  IC50: 0.107 µM
[2]
  IC50: 0.155 µM

## CCCN(CCC)C1CCc2cccc(C(=O)OC)c2C1 (configuration not stated)
[1]
  IC50: 0.0054 µM

## CCCN(CCC)C1CCc2cccc(C(=O)[CH-][N+]#N)c2C1 (configuration not stated)
[1]
  IC50: 0.02 µM
[2]
  IC50: 0.024 µM
